Assay results: paper PMC4872110 (Nucleic Acids Research, 2016)
Blank lines part the entries; values can stand above or below the molecule they belong to.

Tests used:
[1] = biological target: T1, SsTsr3 (Saccharolobus solfataricus, UniProt Q9UWV6); assay: tryptophan fluorescence quenching; assay type: binding
T1 sequence (Q9UWV6 1-166): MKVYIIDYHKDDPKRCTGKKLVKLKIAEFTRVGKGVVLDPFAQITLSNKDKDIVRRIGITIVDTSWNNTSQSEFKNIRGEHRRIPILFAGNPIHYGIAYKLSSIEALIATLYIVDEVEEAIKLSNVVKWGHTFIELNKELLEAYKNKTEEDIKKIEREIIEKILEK

[2] = biological target: VdTsr3 (Vulcanisaeta distributa, UniProt E1QU22); settings: co-purified endogenous E. coli SAM
Chain of VdTsr3 (E1QU22 whole entry): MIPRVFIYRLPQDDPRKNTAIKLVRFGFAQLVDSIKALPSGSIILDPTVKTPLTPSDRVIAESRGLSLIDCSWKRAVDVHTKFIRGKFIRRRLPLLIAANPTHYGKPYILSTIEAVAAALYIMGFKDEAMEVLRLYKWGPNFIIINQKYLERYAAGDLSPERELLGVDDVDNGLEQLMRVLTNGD

[3] = biological target: SsTsr3 (Saccharolobus solfataricus, UniProt Q9UWV6, T17A); assay: biochemical
Chain of SsTsr3 (Saccharolobus solfataricus, UniProt Q9UWV6, T17A) (Q9UWV6 whole entry T17A): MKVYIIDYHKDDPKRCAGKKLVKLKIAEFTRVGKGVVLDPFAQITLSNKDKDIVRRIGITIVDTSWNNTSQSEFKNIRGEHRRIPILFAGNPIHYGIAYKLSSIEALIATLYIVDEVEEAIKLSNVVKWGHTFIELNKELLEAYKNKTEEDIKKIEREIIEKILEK

[4] = biological target: SsTsr3 (Saccharolobus solfataricus, UniProt Q9UWV6, D63A); assay: biochemical
Chain of SsTsr3 (Saccharolobus solfataricus, UniProt Q9UWV6, D63A) (Q9UWV6 whole entry D63A): as the sequence (Q9UWV6 whole entry T17A) above, with A17T, D63A counted along it

[5] = biological target: SsTsr3 (Saccharolobus solfataricus, UniProt Q9UWV6, T17D); assay: biochemical
Chain of SsTsr3 (Saccharolobus solfataricus, UniProt Q9UWV6, T17D) (Q9UWV6 whole entry T17D): as the sequence (Q9UWV6 whole entry T17A) above, with A17D counted along it

[6] = biological target: T2, SsTsr3 (Sulfolobus solfataricus, UniProt Q9UWV6 1-166); assay: fluorescence anisotropy
T2 sequence: T1 sequence (Q9UWV6 1-166)

Kd [1]: 6.5 µM | Kd [3]: 3900 µM | Kd [4]: 11 µM | Kd [5]: 11200 µM
Molecule: C[S+](CC[C@H](N)C(=O)O)C[C@H]1O[C@@H](n2cnc3c(N)ncnc32)[C@H](O)[C@@H]1O (stereo partly drawn) [SAM]
X-ray crystal structure, 1.6 Å (Se-SAD) [2]: VdTsr3 was purified and crystallized in complex with endogenous (E. coli) SAM

B1: oligo-U9 RNA (ssRNA)
RNA: UUUUUUUUU
Kd [6]: 6 µM
